Experimental findings from ChEMBL document CHEMBL1155572, “Sesquiterpene quinols/quinones from the Micronesian sponge Petrosaspongia metachromia” (J Nat Prod, 2000) are described below.

The nature of this series: Toxicity against brine shrimp. The format is organism-based. The following applies: artemia, in vivo.

Values after ≈ are worked out from the molar mass of the structure shown.

A word on the LC50: it is the concentration that kills 50% of the test population. Turning to `COC(=O)c1cc(O)c(O)c2c1[C@]1(C)CC[C@H]3C(C)(C)CCC[C@]3(C)[C@H]1C2` [PELOROL], the 50% lethal concentration (LC50) was determined as 5 µg/mL (≈ 13.4 µM).
